Read-outs that look alike come from different tables or passages of the source.
How the values were obtained:
[1] = test system: TNF-a suppressed t-PA mRNA in HUVECs; test: TNF-alpha suppression of t-PA mRNA in HUVEC: anti-inflammatory substances versus Givinostat; type: cell-based, human; conditions: HUVEC, TNF-a 1 h then substance; ASA 1 mM, IBU 1 mM
Procedure: HUVECs were treated with TNF-alpha (TNF-a) for 1 h and then optimal concentrations of the anti.inflammatory substances acetylsalicylic acid (ASA, 1 mM) and ibuprofen (IBU, 1 mM) was added. Givinostat was also added to the cells for comparison. Cells were harvested and t-PA mRNA levels analysed according to example 1.

t-PA mRNA in HUVECs = test: C100: dose giving a 100% increase of t-PA mRNA in HUVEC (24 h); type: cell-based, human
Procedure: HUVECs are treated with different concentrations of first generation hydroxamates (TSA), second generation hydroxamates (Givinostat, Vorinostat, Belinostat, Panobinostat, SB939, PCI24781), benzamides (Mocetinostat, Entinostat) or short chain fatty acids (SCFA, Butyrate, Phenylbutyrate) for 24 h and t-PA mRNA was measured. The doses giving a 100% increase of t-PA mRNA (C100) was determined and compared to the maximum plasma concentration (Cmax) achieved when the maximum tolerated dose (MTD) of each substance is administered to humans, by dividing the C100 with the Cmax. […] In the table below the values for MTD and Cmax are from the following references (mentioned in the same order as in the table): Steele, N. L. et al Cancer Chemother Pharmacol 67(6):1273-9 (2011), Kelly, K. K. et al J Clin Oncol 23:3923-3931 (2005), Furlan, A. et al Mol Med 17(5-6) 353-362 (2011), Fukutomi, A. et al Invest New Drugs 2011 Apr. 12, Yong, W. P. et al Ann Oncol 22(11) 2516-22 (2011), Garcia-Manero, G. et al. Blood 112: 981-989 (2008), Ryan, Q. C. et al J Clin Oncol 23(17): 3912-3922 (2005), Edelman, M. J. et al Cancer Chemother Pharmacol 51: 439-444, http://www.drugs.com/pro/buphenyl.html *Butyrate was administered in the prodrug form tributyrin.

[2] = cited from earlier work; for Cmax / Cmax (ng/ml): maximum plasma concentration when the MTD is administered to humans
[3] = test system: t-PA mRNA expression in human umbilical vein endothelial cells (HUVECs); test: In vitro dose response: t-PA mRNA (and protein) expression in HUVEC after 24 h; type: cell-based
Procedure: Human umbilical vein endothelial cells (HUVECs) were prepared by collagenase treatment of fresh umbilical cords (Jaffe, E. A., et al. J Clin Invest 52, 2745-2756 (1973)) obtained from the maternity ward of the Sahlgrenska University hospital, Gotheburg, Sweden. Cells were cultured in EGM-2 medium (Lonza, Basel, Switzerland) and all experiments were performed in passage 1 of subcultivation. Confluent HUVECs were exposed to 10 nM-10 μM of Vorinostat (Selleck Chemicals, Houston, Tex., USA) in complete medium for 24 h. After 24 h, cells and conditioned media were harvested.
Total RNA was prepared using RNeasy Mini RNA kit (Qiagen, Hilden, Germany) and genomic DNA was removed using RNase-free DNase I set (Qiagen). Levels of t-PA mRNA were analyzed with real-time RT-PCR, performed on an Applied Biosystems 7500 Fast Real-Time PCR System using cDNA and Taqman reagents obtained from Applied Biosystems (Foster City, Calif., USA). Hypoxanthine phosphoribosyl transferase (HPRT, Assay number Hs99999909_m1, Applied Biosystems) was used as endogenous internal standard.
Endothelial cells in culture are known to constitutively secrete the majority of synthesized t-PA making conditioned media a suitable source for quantification of t-PA protein. Conditioned medium from cell cultures was collected, centrifuged (10 000×g, 10 min, 4° C.) to remove cell debris, transferred to fresh tubes and stored at −70° C. Concentrations of t-PA antigen in conditioned media were determined using the commercially available TriniLize t-PA antigen ELISA (Trinity Biotech, Bray, Ireland) according to manufacturer's protocol.

[4] = test system: t-PA production in endothelial cells; conditions: Arts et al 1995; cited from earlier work

CC(C)Cc1ccc(C(C)C(=O)O)cc1 (centres unmarked) [ibuprofen]
effect on TNF-a mediated suppression of t-PA expression [1]: unable to reverse

Phenylbutyrate
C100 tPA (μM) (t-PA mRNA in HUVECs): 1300 µM | MTD ([2]; humans, literature): 5 g | Cmax ([2]; butyrate as prodrug tributyrin): 1100 µM | Cmax (ng/ml) [2]: 218 000 ng/ml

CCCCc1nc2cc(/C=C/C(=O)NO)ccc2n1CCN(CC)CC [SB939, (2E)-3-{2-butyl-1-[2-(diethylamino)ethyl]-1H-benzimidazol-5-yl}-N-hydroxyacrylamide]
concentration at which a significant increase of t-PA mRNA levels was seen [3]: 30 nM | concentration of maximal effect on t-PA expression [3]: around 1 μM | increase of t-PA expression at maximal effect [3]: approximately 10 times | C100 tPA (t-PA mRNA in HUVECs): 0.05 µM | MTD ([2]; humans, literature): 0.08 g | Cmax [2]: 1.1 µM | Cmax (ng/ml) [2]: ~400 ng/mL | MTD ([2]; once daily, oncology treatment or trials): 60 mg once daily

CC(/C=C/C(=O)NO)=C\[C@@H](C)C(=O)c1ccc(N(C)C)cc1 [Trichostatin A, trichostatin A]
t-PA production in endothelial cells [4]: increased

CC(=O)Oc1ccccc1C(=O)O [ASA, acetylsalicylic acid]
effect on TNF-a mediated suppression of t-PA expression [1]: not counteracted

Nc1ccccc1NC(=O)c1ccc(CNC(=O)OCc2cccnc2)cc1 [Entinostat]
C100 tPA (t-PA mRNA in HUVECs): 0.3 µM | Cmax [2]: 0.12 µM | Cmax (ng/ml) [2]: 45 ng/mL

CC(=O)Oc1ccccc1C(=O)O [aspirin]
effect on TNF-a mediated suppression of t-PA expression [1]: unable to reverse

CC(C)Cc1ccc(C(C)C(=O)O)cc1 (centres unmarked) [IBU, ibuprofen]
effect on TNF-a mediated suppression of t-PA expression [1]: not counteracted

CCCC(=O)O [Butyrate]
C100 tPA (μM) (t-PA mRNA in HUVECs): 100 µM | MTD ([2]; humans, literature, butyrate administered in the prodrug form tributyrin): 200 mg/kg t.i.d | Cmax ([2]; butyrate as prodrug tributyrin): 100 µM

— patent publication US20230094176A1, “COMPOUNDS AND METHODS FOR IMPROVING IMPAIRED ENDOGENOUS FIBRINOLYSIS USING HISTONE DEACETYLASE INHIBITORS” (Cereno Scientific AB, priority 2011, published 2023)
